Experiments:
[1] = system: chickweed; assay: Test C postemergence; format: in vivo, Stellaria media; conditions: Stellaria media, post-emergence
How it was run: (§1)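 Visual ratings on a 0–100 scale (100 = complete control) were made versus untreated controls after 13–15 greenhouse days. Chemicals in a surfactant-containing non-phytotoxic solvent were applied either preemergence to seeds in loam–sand soil or postemergence to 1- to 4-leaf plants 2–18 cm tall.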

[2] = system: wild oat; assay: Test C postemergence; format: in vivo, Avena fatua; conditions: Avena fatua, post-emergence
How it was run: as §1

[3] = system: velvetleaf; assay: Test C postemergence; format: in vivo, Abutilon theophrasti; conditions: Abutilon theophrasti, post-emergence
How it was run: as §1

[4] = system: velvetleaf; assay: Test A postemergence; format: in vivo, Abutilon theophrasti; conditions: Abutilon theophrasti, post-emergence, 240 h
How it was run: (§2)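 Visual 0–100 rating (100 = complete control) taken about 10 d post-treatment relative to untreated checks. Preemergence: directed soil spray on sown loam/sand pots. Postemergence: seedlings 2–10 cm, 1–2 leaf. Non-phytotoxic solvent formulation with surfactant.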

[5] = system: pigweed; assay: Test A postemergence; format: in vivo, Amaranthus retroflexus; conditions: Amaranthus retroflexus, post-emergence
How it was run: as §2

[6] = system: soybean; assay: Test C postemergence; format: in vivo, Glycine max; conditions: Glycine max, post-emergence
How it was run: as §1

[7] = system: giant foxtail; assay: Test C postemergence; format: in vivo, Setaria faberii; conditions: Setaria faberi, post-emergence
How it was run: as §1

[8] = system: giant foxtail; assay: Test A postemergence; format: in vivo, Setaria faberii; conditions: Setaria faberi, post-emergence, 240 h
How it was run: as §2

[9] = system: pigweed; assay: Test A preemergence; format: in vivo, Amaranthus retroflexus; conditions: Amaranthus retroflexus, pre-emergence, 240 h, read-out: Pigweed plant response rating
How it was run: as §2

[10] = system: large (Lg) crabgrass; assay: Test A postemergence; format: in vivo, Digitaria sanguinalis; conditions: Digitaria sanguinalis, post-emergence, 240 h
How it was run: as §2

[11] = system: ragweed; assay: Test C postemergence; format: in vivo, Ambrosia elatior; conditions: Ambrosia artemisiifolia, post-emergence
How it was run: as §1

[12] = system: wheat, winter; assay: Test C postemergence; format: in vivo, Triticum aestivum; conditions: Triticum aestivum, post-emergence
How it was run: as §1

[13] = system: large (Lg) crabgrass; assay: Test A preemergence; format: in vivo, Digitaria sanguinalis; conditions: Digitaria sanguinalis, pre-emergence, 240 h, read-out: Crabgrass, Large plant response rating
How it was run: as §2

[14] = system: velvetleaf; assay: Test A preemergence; format: in vivo, Abutilon theophrasti; conditions: Abutilon theophrasti, pre-emergence, 240 h, read-out: Velvetleaf plant response rating
How it was run: as §2

[15] = system: giant foxtail; assay: Test A preemergence; format: in vivo, Setaria faberii; conditions: Setaria faberi, pre-emergence, 240 h, read-out: Foxtail, Giant plant response rating
How it was run: as §2

[16] = 125 g ai/ha, 0 to 100 scale where 0 is no effect and 100 is complete control
[17] = 500 g ai/ha, 0 to 100 scale, 0 no effect, 100 complete control, approx. 10 days

Clc1cnn(-c2ccccc2Oc2ncc(Br)cn2)c1 [Compound 5, 5-bromo-2-[2-(4-chloro-1H-pyrazol-1-yl)phenoxy]pyrimidine]
pest or weed control at 250 g/ha ([1]; 250 g ai/ha, postemergence, read-out: Plant response rating (0 to 100), Chickweed): 45% | pest or weed control at 31 g/ha ([1]; Postemergence, 31 g ai/ha, scale 0 to 100 (0 no effect, 100 complete control), 13 to 15 days, read-out: Plant response rating, Chickweed): 5% | pest or weed control at 62 g/ha ([1]; Postemergence, 62 g ai/ha, scale 0 to 100 (0 no effect, 100 complete control), read-out: Plant response rating, Chickweed): 15% | pest or weed control at 125 g/ha ([2]; 125 g ai/ha, postemergence, read-out: Plant response rating (0 to 100), Oat, Wild): 10% | pest or weed control at 250 g/ha ([2]; 250 g ai/ha, postemergence, read-out: Plant response rating (0 to 100), Oat, Wild): 30% | pest or weed control at 31 g/ha ([2]; Postemergence, 31 g ai/ha, scale 0 to 100 (0 no effect, 100 complete control), 13 to 15 days, read-out: Plant response rating, Oat, Wild): 0% | pest or weed control at 62 g/ha ([2]; Postemergence, 62 g ai/ha, scale 0 to 100 (0 no effect, 100 complete control), read-out: Plant response rating, Oat, Wild): 5% | pest or weed control at 125 g/ha ([3]; 125 g ai/ha, postemergence, read-out: Plant response rating (0 to 100), Velvetleaf): 80% | pest or weed control at 250 g/ha ([3]; 250 g ai/ha, postemergence, read-out: Plant response rating (0 to 100), Velvetleaf): 98% | pest or weed control at 31 g/ha ([3]; Postemergence, 31 g ai/ha, scale 0 to 100 (0 no effect, 100 complete control), 13 to 15 days, read-out: Plant response rating, Velvetleaf): 45% | pest or weed control at 62 g/ha ([3]; Postemergence, 62 g ai/ha, scale 0 to 100 (0 no effect, 100 complete control), read-out: Plant response rating, Velvetleaf): 55% | pest or weed control at 125 g/ha ([4]; 125 g ai/ha, 0 to 100 scale where 0 is no effect and 100 is complete control, read-out: Plant response rating, Velvetleaf): 100% | pest or weed control at 500 g/ha ([4]; 500 g ai/ha, 0 to 100 scale, 0 no effect, 100 complete control, read-out: Plant response rating Velvetleaf): 100% | pest or weed control at 125 g/ha ([5]; 125 g ai/ha, 0 to 100 scale where 0 is no effect and 100 is complete control, read-out: Plant response rating, Pigweed): 100% | pest or weed control at 500 g/ha ([5]; 240 h, 500 g ai/ha, 0 to 100 scale, 0 no effect, 100 complete control, read-out: Plant response rating Pigweed): 100% | Soybean plant response rating (crop injury, 0-100 scale) at 125 g/ha ([6]; 125 g ai/ha, postemergence, read-out: Plant response rating (0 to 100), Soybean): 95% | Soybean plant response rating (crop injury, 0-100 scale) at 250 g/ha ([6]; 250 g ai/ha, postemergence): 95% | Soybean plant response rating (crop injury, 0-100 scale) at 31 g/ha ([6]; Postemergence, 31 g ai/ha, scale 0 to 100 (0 no effect, 100 complete control), 13 to 15 days): 55% | Soybean plant response rating (crop injury, 0-100 scale) at 62 g/ha ([6]; Postemergence, 62 g ai/ha, scale 0 to 100 (0 no effect, 100 complete control)): 90% | pest or weed control at 125 g/ha ([7]; 125 g ai/ha, postemergence, read-out: Plant response rating (0 to 100), Foxtail, Giant): 5% | pest or weed control at 250 g/ha ([7]; 250 g ai/ha, postemergence, read-out: Plant response rating (0 to 100), Foxtail, Giant): 10% | pest or weed control at 31 g/ha ([7]; Postemergence, 31 g ai/ha, scale 0 to 100 (0 no effect, 100 complete control), 13 to 15 days, read-out: Plant response rating, Foxtail, Giant): 5% | pest or weed control at 62 g/ha ([7]; Postemergence, 62 g ai/ha, scale 0 to 100 (0 no effect, 100 complete control), read-out: Plant response rating, Foxtail, Giant): 5% | pest or weed control at 125 g/ha ([8]; 125 g ai/ha, 0 to 100 scale where 0 is no effect and 100 is complete control, read-out: Plant response rating, Foxtail, Giant): 40% | pest or weed control at 500 g/ha ([8]; 500 g ai/ha, 0 to 100 scale, 0 no effect, 100 complete control, read-out: Plant response rating Foxtail, Giant): 100% | pest or weed control at 125 g/ha [9, 16]: 100% | pest or weed control at 500 g/ha [9, 17]: 100% | pest or weed control at 125 g/ha ([10]; 125 g ai/ha, 0 to 100 scale where 0 is no effect and 100 is complete control, read-out: Plant response rating, Crabgrass, Large): 30% | pest or weed control at 500 g/ha ([10]; 500 g ai/ha, 0 to 100 scale, 0 no effect, 100 complete control, read-out: Plant response rating Crabgrass, Large): 80% | pest or weed control at 125 g/ha ([11]; 125 g ai/ha, postemergence, read-out: Plant response rating (0 to 100), Ragweed): 55% | pest or weed control at 250 g/ha ([11]; 250 g ai/ha, postemergence, read-out: Plant response rating (0 to 100), Ragweed): 85% | pest or weed control at 31 g/ha ([11]; Postemergence, 31 g ai/ha, scale 0 to 100 (0 no effect, 100 complete control), 13 to 15 days, read-out: Plant response rating, Ragweed): 15% | pest or weed control at 62 g/ha ([11]; Postemergence, 62 g ai/ha, scale 0 to 100 (0 no effect, 100 complete control), read-out: Plant response rating, Ragweed): 45% | plant injury at 125 g/ha ([12]; 125 g ai/ha, postemergence, read-out: Plant response rating (0 to 100), Wheat): 10% | plant injury at 250 g/ha ([12]; 250 g ai/ha, postemergence, read-out: Plant response rating (0 to 100), Wheat): 40% | plant injury at 31 g/ha ([12]; Postemergence, 31 g ai/ha, scale 0 to 100 (0 no effect, 100 complete control), 13 to 15 days, read-out: Plant response rating, Wheat): 0% | plant injury at 62 g/ha ([12]; Postemergence, 62 g ai/ha, scale 0 to 100 (0 no effect, 100 complete control), read-out: Plant response rating, Wheat): 5% | pest or weed control at 125 g/ha [13, 16]: 90% | pest or weed control at 500 g/ha [13, 17]: 90% | pest or weed control at 125 g/ha [14, 16]: 90% | pest or weed control at 500 g/ha [14, 17]: 100% | pest or weed control at 125 g/ha [15, 16]: 90% | pest or weed control at 500 g/ha [15, 17]: 100%

— patent US9695155B2, “Herbicidal substituted pyrimidinyloxy benzene compounds” (E. I. DU PONT DE NEMOURS AND COMPANY, priority 2013, dated 2017)
